The record followed here is patent publication US4503256A, “Phlorophenone derivatives, processes for preparing such compounds, uses and pharmaceutical compositions of phlorophenone compounds” (Noristan Limited, priority 1981, dated 1985).

SMILES strings stand for the structures. Converted amounts (≈) assume the structure as drawn. Where two headings read alike, the source gives them in different places. Some results are limits rather than exact numbers.

One series concerns S. AUREUS. Put plainly: Minimum Inhibitory Concentration (MIC), broth dilution in Brain Heart Infusion broth. It counts as cell-based, Staphylococcus aureus. Particulars: Staphylococcus aureus, read-out: MIC S. AUREUS. The method, then: (§1) For testing against the bacteria, concentrations of each of the compounds were prepared in Brain Heart Infusion broth (Oxoid CM225) in two-fold steps from 1000 μg/ml to 1 μg/ml. Solutions containing 1000 μg/ml were prepared by dissolving 20 mg of each compound in 5 ml of acetone and this was then made up to 20 ml with Brain Heart Infusion Broth. Serial two-fold dilutions were then prepared in the broth down to 1 μg/ml.
(§2) For testing against the bacteria each of the prepared test concentrations and acetone controls prepared in Brain Heart Infusion were dispensed in 2 ml amounts for each organism. A growth control of 2 ml of Brain Heart Infusion was included in each series.
(§3) To each of the prepared sets of concentrations of each compound were added 0.1 ml aliquots of the organism suspensions prepared as described previously. All the bottles were incubated at 37° C. for 48 hours in the case of the bacteria and from 5 to 15 days for the fungi (until growth controls had grown in each case).
(§4) After incubation the broths were examined for evidence of growth. The lowest concentration of the test compound which prevented growth was recorded as the Minimum Inhibitory Concentration (MIC).
(Dilution methods test growth across graded concentrations, often in twofold steps.)

A further series deals with St. PYOGENES
Described as above. It counts as cell-based. Conditions: Streptococcus pyogenes, 37° C., 48 hours. The method, then: as §1, §2, §3, §4

Another series relates to C. ALBICANS
Briefly: Minimum Inhibitory Concentration (MIC), dilution in Sabouraud liquid medium. It counts as cell-based. Particulars: Candida albicans, 37° C., 5 to 15 days. As for the experimental part:
(§5) For testing against the fungi, concentrations of each of the compounds were prepared in Sabouraud liquid medium in two-fold steps from 100 μg/ml to 0.1 μg/ml. 500 μg/ml solutions were prepared by dissolving 10 mg in 5 ml of acetone, made up to 20 ml with Sabouraud liquid medium. 4 ml of the 500 μg/ml concentration was then made up to 20 ml with Sabouraud liquid medium to give a concentration of 100 μg/ml. Serial two-fold dilutions were prepared from this in the same medium down to 0.1 μg/ml.
(§6) For the fungi the same procedure was followed using the concentrations made up in Sabouraud liquid medium. The Nystatin concentrations were also dispensed in 2 ml amounts for each organism. Growth controls of Sabouraud liquid medium were included in each series.
as §3, §4

The subject of the next series is Mic. CANIS. Described as above. It counts as cell-based. Particulars: Microsporum canis, 37° C., 5 to 15 days. The method, then:
as §5, §6, §3, §4

Another series concerns Sp. SCHENKII
The series is described as above. It counts as cell-based. Particulars: 37° C., 5 to 15 days. The method, then: as §5, §6, §3, §4

Another series relates to Tr. MENTAGROPHYTES
Described as above. It counts as cell-based. Particulars: Trichophyton mentagrophytes, 37° C., 5 to 15 days. The method, then: as §5, §6, §3, §4

A further series has as its system Tr. RUBRUM. The series is described as above. It counts as cell-based. Particulars: Trichophyton rubrum, 37° C., 5 to 15 days. As for the experimental part:
as §5, §6, §3, §4

Series [1] in a line: Acute oral toxicity in CD-1 mice. It counts as in vivo. Particulars: mouse, in vivo, male and female CD-1 mice, dose levels 1000, 464, 215 and 100 mg/kg, 7 days observation. As for the experimental part:
Male and female CD-1 mice were fasted for 18 hours prior to the experiment, but water was available ad libitum except during the observation period. The test compounds were prepared in 1% tragacanth and were administered orally to groups of two male and two female mice.
All compounds were tested at dose levels of 1000, 464, 215 and 100 mg/kg. Immediately after dosing, the mice were replaced in their "home" cage and were observed daily for 7 days post dose and any mortalities recorded.
The acute toxicities, as determined by the above procedure, of a number of representative compounds are given in the accompanying table.

The mark [2] stands for this setting: 37° C., 48 hours, Brain Heart Infusion broth.

Usually MIC stands for the smallest concentration in the dilution series that meets the test's criterion for growth inhibition. The LD50 is the dose at which mortality reaches 50%. Higher therefore signals a less toxic substance. Consider `CCCC(=O)c1c(O)cc(O)c(C(=O)CCC)c1O` [Compound 1, 2,4-Dibutyrylphloroglucinol], for which the MIC with S. AUREUS (setting [2]) worked out at 2 µg/mL (≈ 7.51 µM); against St. PYOGENES it was 1 µg/mL (≈ 3.76 µM); in the series on C. ALBICANS, 13 µg/mL (≈ 48.8 µM); with Mic. CANIS, 3 µg/mL (≈ 11.3 µM); in the series with Sp. SCHENKII it was 6 µg/mL (≈ 22.5 µM); in the series with Tr. MENTAGROPHYTES, 6 µg/mL (≈ 22.5 µM). In the series on Tr. RUBRUM, the MIC came to 6 µg/mL (≈ 22.5 µM). For the same compound, in series [1], the LD50 at 168 h is > 1000 mg/kg.

For the compound `CCC(=O)c1c(O)cc(O)c(CC=C(C)C)c1O` [Compound 2, 2-Propionyl-4-(3-methylbuten-2-yl)phloroglucinol], the minimum inhibitory concentration (MIC) in the series on S. AUREUS (setting [2]) is 125 µg/mL (≈ 499 µM); against St. PYOGENES it was 8 µg/mL (≈ 32 µM); in the series on C. ALBICANS, 50 µg/mL (≈ 200 µM); against Mic. CANIS, 13 µg/mL (≈ 51.9 µM); in the series on Sp. SCHENKII, 25 µg/mL (≈ 99.9 µM); against Tr. MENTAGROPHYTES, 25 µg/mL (≈ 99.9 µM). This compound gave a minimum inhibitory concentration (MIC) in the series with Tr. RUBRUM of 13 µg/mL (≈ 51.9 µM). For the same compound, the LD50 at 168 h in series [1] was > 1000 mg/kg.

On to `CCCCC(=O)c1c(O)cc(O)c(CC=C(C)C)c1O` [Compound 4, 2-Valeryl-4-(3-methylbuten-2-yl)phloroglucinol], for which the MIC in the series on S. AUREUS (setting [2]) amounted to 64 µg/mL (≈ 230 µM); in the series with St. PYOGENES it was 16 µg/mL (≈ 57.5 µM); with C. ALBICANS, 25 µg/mL (≈ 89.8 µM); in the series on Mic. CANIS it was 13 µg/mL (≈ 46.7 µM); against Sp. SCHENKII, 25 µg/mL (≈ 89.8 µM); against Tr. MENTAGROPHYTES it was 13 µg/mL (≈ 46.7 µM). Moreover, the MIC in the series on Tr. RUBRUM stood at 13 µg/mL (≈ 46.7 µM). In series [1], the LD50 at 168 h is > 1000 mg/kg.

Take `CCCCCC(=O)c1c(O)cc(O)c(CC=C(C)C)c1O` [Compound 5, 2-Caproyl-4-(3-methylbuten-2-yl)phloroglucinol]: the MIC in the series on S. AUREUS (setting [2]) is 8 µg/mL (≈ 27.4 µM); in the series with St. PYOGENES, 4 µg/mL (≈ 13.7 µM); in the series with C. ALBICANS it was 13 µg/mL (≈ 44.5 µM); in the series on Mic. CANIS, 1.6 µg/mL (≈ 5.47 µM); against Sp. SCHENKII it was 13 µg/mL (≈ 44.5 µM); against Tr. MENTAGROPHYTES, 6 µg/mL (≈ 20.5 µM). The same compound gave an MIC against Tr. RUBRUM of 3 µg/mL (≈ 10.3 µM). For the same compound, the LD50 at 168 h in series [1] is > 1000 mg/kg.

Take `CC(C)=CCc1c(O)cc(O)c(C(=O)Cc2ccccc2)c1O` [Compound 6, 2Phenylacetyl-4-(3-methylbuten-2-yl)phloroglucinol]: the MIC is 250 µg/mL (≈ 800 µM) in the series on S. AUREUS (setting [2]); 8 µg/mL (≈ 25.6 µM) with St. PYOGENES; > 100 µg/mL in the series with C. ALBICANS; 50 µg/mL (≈ 160 µM) with Mic. CANIS; 50 µg/mL (≈ 160 µM) in the series on Sp. SCHENKII; 100 µg/mL (≈ 320 µM) with Tr. MENTAGROPHYTES. The compound further came in with an MIC in the series with Tr. RUBRUM of 25 µg/mL (≈ 80 µM). For the same compound, in series [1], the LD50 at 168 h is > 1000 mg/kg.

For the compound `CC(C)=CCc1c(O)cc(O)c(C(=O)CCC(C)C)c1O` [Compound 7, 2-Isocaproyl-4-(3-methylbuten-2-yl)phloroglucinol], the MIC was determined as 16 µg/mL (≈ 54.7 µM) in the series on S. AUREUS (setting [2]); 8 µg/mL (≈ 27.4 µM) in the series on St. PYOGENES; 25 µg/mL (≈ 85.5 µM) in the series on C. ALBICANS; 6 µg/mL (≈ 20.5 µM) in the series on Mic. CANIS; 25 µg/mL (≈ 85.5 µM) in the series with Sp. SCHENKII; 6 µg/mL (≈ 20.5 µM) with Tr. MENTAGROPHYTES. Moreover, 6 µg/mL (≈ 20.5 µM) was the least that counted as inhibitory against Tr. RUBRUM (MIC). The compound also had an LD50 at 168 h in series [1] of 1000 mg/kg.

Turning to `CC(C)=CCc1c(O)cc(O)c(C(=O)C2CCCCC2)c1O` [Compound 8, 2-Hexahydrobenzoyl-4-(3-methylbuten-2-yl)phloroglucinol], the MIC in the series on S. AUREUS (setting [2]) worked out at 32 µg/mL (≈ 105 µM); in the series with St. PYOGENES, 8 µg/mL (≈ 26.3 µM); against C. ALBICANS, 13 µg/mL (≈ 42.7 µM); with Mic. CANIS it was 6 µg/mL (≈ 19.7 µM); in the series on Sp. SCHENKII it was 13 µg/mL (≈ 42.7 µM); against Tr. MENTAGROPHYTES, 6 µg/mL (≈ 19.7 µM). The compound also came in with an MIC against Tr. RUBRUM of 6 µg/mL (≈ 19.7 µM). For the same compound, in series [1], the LD50 at 168 h was > 1000 mg/kg.

With `CC(C)=CCc1c(O)cc(O)c(C(=O)C2CCCC2)c1O` [Compound 9, 2-(2-Cyclopentyl-1-oxo)-4-(3-methylbuten-2-yl)phloroglucinol], the MIC with S. AUREUS (48 h) was 32 µg/mL (≈ 110 µM); in the series on St. PYOGENES it was 8 µg/mL (≈ 27.6 µM); with C. ALBICANS it was 6.2 µg/mL (≈ 21.4 µM); in the series with Mic. CANIS, 1.6 µg/mL (≈ 5.51 µM); in the series on Sp. SCHENKII it was 6.2 µg/mL (≈ 21.4 µM); against Tr. MENTAGROPHYTES, 6.2 µg/mL (≈ 21.4 µM). The same compound gave an MIC in the series with Tr. RUBRUM of 3.1 µg/mL (≈ 10.7 µM). The LD50 at 168 h in series [1] is < 100 mg/kg.

As to `CCCCCCCC(=O)c1c(O)cc(O)c(CC=C(C)C)c1O` [Compound 11, 2-Octanoyl-4-(3-methylbuten-2-yl)phloroglucinol], the MIC with S. AUREUS (setting [2]) was 64 µg/mL (≈ 200 µM); in the series on St. PYOGENES it was 2 µg/mL (≈ 6.24 µM); with C. ALBICANS, 100 µg/mL (≈ 312 µM); against Mic. CANIS, 50 µg/mL (≈ 156 µM); against Sp. SCHENKII, > 100 µg/mL; against Tr. MENTAGROPHYTES, 100 µg/mL (≈ 312 µM). Moreover, it took 50 µg/mL (≈ 156 µM) to inhibit growth in the series with Tr. RUBRUM (MIC). In series [1], this compound came in with an LD50 at 168 h of 597 mg/kg.
